2 compounds from patent US20110152166A1, “METHOD OF MODULATION OF PROTEIN PHOSPHORYLATION-DEPENDENT CONFORMATIONAL TRANSITIONS WITH LOW MOLECULAR WEIGHT COMPOUNDS” (priority 2006, published 2011) can be followed below.

Common to all, as to assay: PDK1 activity assay with T308tide
Type in all cases: biochemical

Assay [1] concerns the target T1, GST-PDK1 [Leu155Ala] (Homo sapiens, UniProt O15530, L155A).
T1 construct: different protein constructs, comprising the full length protein or the catalytic domain alone; made in house; host or cells: HEK293 cells (pEBG-2T-PDK1 mutant)
T1 sequence (O15530 1-556 L155A): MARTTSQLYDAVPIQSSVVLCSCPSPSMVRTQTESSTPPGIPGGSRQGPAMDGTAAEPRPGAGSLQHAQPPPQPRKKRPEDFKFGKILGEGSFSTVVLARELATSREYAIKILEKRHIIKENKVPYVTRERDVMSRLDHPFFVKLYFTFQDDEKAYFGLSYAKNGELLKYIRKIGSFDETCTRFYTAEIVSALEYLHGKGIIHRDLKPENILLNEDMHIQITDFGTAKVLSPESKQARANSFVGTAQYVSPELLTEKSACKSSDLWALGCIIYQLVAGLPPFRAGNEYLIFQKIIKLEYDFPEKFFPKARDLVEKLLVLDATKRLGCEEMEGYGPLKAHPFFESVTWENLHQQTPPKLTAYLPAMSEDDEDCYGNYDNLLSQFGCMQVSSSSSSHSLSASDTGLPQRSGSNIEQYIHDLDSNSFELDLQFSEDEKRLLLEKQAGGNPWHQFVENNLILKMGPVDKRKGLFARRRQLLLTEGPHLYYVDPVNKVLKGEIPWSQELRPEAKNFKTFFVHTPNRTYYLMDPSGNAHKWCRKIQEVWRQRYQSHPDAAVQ

The target in assay [2] is T2, GST-PDK1 [Leu155Glu] (Homo sapiens, UniProt O15530, L155E).
T2 construct: different protein constructs, comprising the full length protein or the catalytic domain alone; made in house; host or cells: HEK293 cells (pEBG-2T-PDK1 mutant)
T2 sequence (O15530 1-556 L155E): T1 sequence (O15530 1-556 L155A) with A155E
The following applies: for AC50: GST-PDK1 [Leu155Glu].

The target of assay [3] is T3, GST-PDK1 [Leu155Val] (Homo sapiens, UniProt O15530, L155V).
T3 construct: different protein constructs, comprising the full length protein or the catalytic domain alone; made in house; host or cells: HEK293 cells (pEBG-2T-PDK1 mutant)
T3 sequence (O15530 whole entry L155V, the tested form may be a part): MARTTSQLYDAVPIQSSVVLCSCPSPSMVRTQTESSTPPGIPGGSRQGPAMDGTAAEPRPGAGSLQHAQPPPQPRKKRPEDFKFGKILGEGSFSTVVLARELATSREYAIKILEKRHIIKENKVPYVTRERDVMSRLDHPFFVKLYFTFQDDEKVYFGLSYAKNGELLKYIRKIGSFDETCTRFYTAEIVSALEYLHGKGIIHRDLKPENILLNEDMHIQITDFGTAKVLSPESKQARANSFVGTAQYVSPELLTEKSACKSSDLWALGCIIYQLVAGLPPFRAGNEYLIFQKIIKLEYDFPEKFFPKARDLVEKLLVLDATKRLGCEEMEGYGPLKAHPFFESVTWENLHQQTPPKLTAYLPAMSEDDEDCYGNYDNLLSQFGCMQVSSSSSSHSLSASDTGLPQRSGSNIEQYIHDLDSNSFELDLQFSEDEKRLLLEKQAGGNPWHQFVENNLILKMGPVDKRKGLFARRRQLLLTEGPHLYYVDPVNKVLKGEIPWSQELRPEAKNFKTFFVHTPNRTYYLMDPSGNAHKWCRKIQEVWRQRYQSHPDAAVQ

Assay [4] concerns the target T4, GST-PDK1 [Lys115Met] (Homo sapiens, UniProt O15530, K115M).
T4 construct: different protein constructs, comprising the full length protein or the catalytic domain alone; made in house; host or cells: HEK293 cells (pEBG-2T-PDK1 mutant)

Assay [5] deals with T5, GST-PDK1 [Phe157Met] (Homo sapiens, UniProt O15530, F157M).
T5 construct: different protein constructs, comprising the full length protein or the catalytic domain alone; made in house; host or cells: HEK293 cells (pEBG-2T-PDK1 mutant)
T5 sequence (O15530 1-556 F157M): T1 sequence (O15530 1-556 L155A) with A155L, F157M

Changes are numbered by the printed parent chain. Read-outs that look alike come from different tables or passages of the source. Ends that are not written are not given here. A value given as a limit tells only on which side of the number the result lay.

T4 sequence (O15530 whole entry K115M, the tested form may be a part): as the sequence (O15530 whole entry L155V, the tested form may be a part) above, with K115M, V155L counted along it

With `O=C(O)CSC(CC(=O)c1ccc(Cl)cc1)c1ccccc1` (stereo not drawn) [Compound 1], the concentration at half-maximal activity (AC50) in assay [1] was above 200 µM; in assay [2], “No Effect”; in assay [3], “No Effect”; in assay [4] (read-out: AC50) it was above 200 µM; in assay [5], 140 ± 100 µM. The results for the Max. activity in assay [1] and in assay [5] were 2.02 ± 0.61 U/mg and 0.9 ± 0.3 U/mg, respectively. For the same compound, in assay [2] (Leu155 replaced with Glu, constitutively active), the “activation of PDK1 mutant (in words)” value was “could not be further activated”.
Take “REPRILSEEEQEMFRDFDYIADWC [PIFtide, reference compound]”: the AC50 is 3.7 ± 0.66 µM in assay [1]; “No Effect” in assay [2]; “No Effect” in assay [3]; “No Effect” in assay [4]; 1.52 ± 0.59 µM in assay [5]. Also, the Max. activity in assay [1] is 3.46 ± 0.15 U/mg; in assay [5], 1.7 ± 0.24 U/mg.

The term AC50 denotes the midpoint of the concentration-response curve, whichever way the signal moves.
